Laboratory results taken from ChEMBL document CHEMBL5365437, “Cannabinoformins: Designing Biguanide-Embedded, Orally Available, Peripherally Selective Cannabinoid-1 Receptor Antagonists for Metabolic Syndrome Disorders” (J Med Chem, 2023).

Tests used:
Cannabinoid receptor 1 [1] = target: T1, Cannabinoid receptor 1 (Mus musculus, UniProt P47746); assay: Displacement of [3H][…] from CB1 receptor in mouse brain plasma membrane by radioligand displacement analysis; format: cell membranes
[2] = target: T2, AMP-activated protein kinase (AMPK) alpha-1/beta-1/gamma-1 (Homo sapiens) (UniProt P54619+Q9Y478+Q13131); assay: Activation of recombinant AMPK alpha1/beta1/gamma1 (unknown origin) at 10 uM relative to control; format: protein-complex assay; details: filed as activator
T2 sequence (P54619 whole entry): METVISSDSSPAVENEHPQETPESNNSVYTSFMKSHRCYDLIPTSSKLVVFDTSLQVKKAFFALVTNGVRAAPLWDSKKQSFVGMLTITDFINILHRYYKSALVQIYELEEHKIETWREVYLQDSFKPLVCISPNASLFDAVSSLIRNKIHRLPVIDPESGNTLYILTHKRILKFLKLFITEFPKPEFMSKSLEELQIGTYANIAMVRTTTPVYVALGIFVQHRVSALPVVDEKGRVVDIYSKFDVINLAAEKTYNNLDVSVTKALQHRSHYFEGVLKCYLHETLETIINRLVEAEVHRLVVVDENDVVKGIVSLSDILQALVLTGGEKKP
T2 sequence (Q13131 whole entry partner): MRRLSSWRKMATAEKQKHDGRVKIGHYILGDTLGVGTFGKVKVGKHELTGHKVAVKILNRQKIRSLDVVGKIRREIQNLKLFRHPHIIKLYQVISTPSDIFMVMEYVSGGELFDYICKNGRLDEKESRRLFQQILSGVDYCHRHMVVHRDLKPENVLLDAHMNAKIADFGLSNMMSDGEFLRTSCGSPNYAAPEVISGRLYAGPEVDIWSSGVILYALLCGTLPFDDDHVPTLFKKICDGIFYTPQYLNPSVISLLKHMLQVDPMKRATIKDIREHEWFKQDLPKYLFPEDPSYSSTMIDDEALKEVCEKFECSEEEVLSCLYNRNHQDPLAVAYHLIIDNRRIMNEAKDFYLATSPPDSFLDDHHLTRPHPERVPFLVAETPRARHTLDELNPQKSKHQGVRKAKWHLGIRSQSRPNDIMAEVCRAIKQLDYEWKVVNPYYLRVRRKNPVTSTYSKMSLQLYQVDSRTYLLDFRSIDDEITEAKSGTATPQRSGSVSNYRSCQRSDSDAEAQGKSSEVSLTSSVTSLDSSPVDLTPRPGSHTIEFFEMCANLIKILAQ
T2 sequence (Q9Y478 2-270 partner limits assumed): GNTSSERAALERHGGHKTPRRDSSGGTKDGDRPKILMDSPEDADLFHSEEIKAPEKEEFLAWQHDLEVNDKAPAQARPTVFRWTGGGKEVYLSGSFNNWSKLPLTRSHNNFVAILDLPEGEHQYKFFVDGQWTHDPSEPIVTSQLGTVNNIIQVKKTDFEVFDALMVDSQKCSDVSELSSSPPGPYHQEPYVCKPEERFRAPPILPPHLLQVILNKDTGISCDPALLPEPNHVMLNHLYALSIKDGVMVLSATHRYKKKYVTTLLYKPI

[3] = target: T2, AMP-activated protein kinase (AMPK) alpha-1/beta-1/gamma-1 (Homo sapiens); assay: Activation of recombinant AMPK alpha1/beta1/gamma1 (unknown origin) at 1 uM relative to control; format: protein-complex assay; details: filed as activator
Cannabinoid receptor 1 [4] = target: T1, Cannabinoid receptor 1; assay: Antagonist activity at CB1 receptor in mouse brain membrane assessed as inhibition of […]-induced GTPgammaS binding by [35S]GTPgammaS binding analysis; format: functional, cell membranes

T1 sequence (P47746 whole entry): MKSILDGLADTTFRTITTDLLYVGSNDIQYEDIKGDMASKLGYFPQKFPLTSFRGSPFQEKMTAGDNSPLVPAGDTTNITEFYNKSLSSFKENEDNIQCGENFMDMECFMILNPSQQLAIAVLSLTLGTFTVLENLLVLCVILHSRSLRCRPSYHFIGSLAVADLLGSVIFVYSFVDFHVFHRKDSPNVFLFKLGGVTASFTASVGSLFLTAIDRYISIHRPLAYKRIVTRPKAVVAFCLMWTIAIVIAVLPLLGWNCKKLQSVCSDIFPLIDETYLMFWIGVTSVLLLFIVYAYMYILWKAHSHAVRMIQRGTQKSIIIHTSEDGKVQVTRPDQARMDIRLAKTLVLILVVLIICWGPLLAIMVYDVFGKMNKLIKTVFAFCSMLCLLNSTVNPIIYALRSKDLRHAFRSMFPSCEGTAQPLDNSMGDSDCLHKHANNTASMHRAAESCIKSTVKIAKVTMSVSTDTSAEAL

Compound	Ki (Cannabinoid receptor 1 [1])	Activity [2]	Activity [3]	IC50 (Cannabinoid receptor 1 [4])
CC(=O)N/C(N)=N/C(=N/S(=O)(=O)c1ccc(I)cc1)N1C[C@@H](c2ccccc2)C(c2ccc(Cl)cc2)=N1	55 nM	122%		
CN/C(N)=N/C(=N/S(=O)(=O)c1ccc(Cl)cc1)N1CC(c2ccccc2)C(c2ccc(Cl)cc2)=N1 (stereo unspecified)		139%		
N/C(=N\C(=N\S(=O)(=O)c1ccc(I)cc1)N1CC(c2ccccc2)C(c2ccc(Cl)cc2)=N1)NC(=O)c1ccccc1 (stereo unspecified)	5.5 nM		96%	14 nM
N/C(=N\C(=N\S(=O)(=O)c1ccc(Cl)cc1)N1CC(c2ccccc2)C(c2ccc(Cl)cc2)=N1)NC12C[C@H]3C[C@@H](C1)C[C@@H](C2)C3 (stereo partly specified)	> 1000 nM			
CN1CCN(/C(N)=N/C(=N/S(=O)(=O)c2ccc(Cl)cc2)N2CC(c3ccccc3)C(c3ccc(Cl)cc3)=N2)CC1 (stereo unspecified)		182%		
N/C(=N\C(=N\S(=O)(=O)c1ccc2ccccc2c1)N1CC(c2ccccc2)C(c2ccc(Cl)cc2)=N1)NC(=O)c1ccccc1 (stereo unspecified)	8.1 nM		90%	66 nM
CC(=O)N/C(N)=N/C(=N/S(=O)(=O)c1ccc(I)cc1)N1CC(c2ccccc2)C(c2ccc(Cl)cc2)=N1 (stereo unspecified)	3.2 nM		121%	2.8 nM
CC(=O)N/C(N)=N/C(=N/S(=O)(=O)c1ccc(C(C)C)cc1)N1CC(c2ccccc2)C(c2ccc(Cl)cc2)=N1 (stereo unspecified)	3.7 nM		119%	1.7 nM
CCN(CC)S(=O)(=O)/N=C(/N=C(\N)NC(C)=O)N1CC(c2ccccc2)C(c2ccc(Cl)cc2)=N1 (stereo unspecified)	1.3 nM		152%	2.1 nM
N/C(=N\C(=N\S(=O)(=O)c1ccc(Cl)cc1)N1CC(c2ccccc2)C(c2ccc(Cl)cc2)=N1)NC(=O)c1ccccc1 (stereo unspecified)	0.8 nM		100%	25 nM
CC(=O)N/C(N)=N/C(=N/S(=O)(=O)c1ccc(C#N)cc1)N1CC(c2ccccc2)C(c2ccc(Cl)cc2)=N1 (stereo unspecified)	0.4 nM		91%	5.8 nM
CCC(=O)N/C(N)=N/C(=N/S(=O)(=O)c1ccc(C(F)(F)F)cc1)N1CC(c2ccccc2)C(c2ccc(Cl)cc2)=N1 (stereo unspecified)	3.3 nM		96%	5.5 nM
COCCN/C(N)=N/C(=N/S(=O)(=O)c1ccc(Cl)cc1)N1CC(c2ccccc2)C(c2ccc(Cl)cc2)=N1 (stereo unspecified)		156%		
N/C(=N\C(=N\S(=O)(=O)c1ccc(C(F)(F)F)cc1)N1CC(c2ccccc2)C(c2ccc(Cl)cc2)=N1)NC(=O)c1ccccc1 (stereo unspecified)	3 nM		101%	6.1 nM
N/C(=N\C(=N\S(=O)(=O)c1ccc(Cl)cc1)N1CC(c2ccccc2)C(c2ccc(Cl)cc2)=N1)NCc1ccccc1 (stereo unspecified)		149%		
CC(=O)N/C(N)=N/C(=N/S(=O)(=O)c1ccc(Cl)cc1)N1C[C@@H](c2ccccc2)C(c2ccc(Cl)cc2)=N1	103 nM	130%		
CC(=O)N/C(N)=N/C(=N/S(=O)(=O)c1ccc(F)cc1)N1CC(c2ccccc2)C(c2ccc(Cl)cc2)=N1 (stereo unspecified)	2.3 nM		95%	10 nM
N/C(=N\C(=N\S(=O)(=O)c1ccc(Cl)cc1)N1CC(c2ccccc2)C(c2ccc(Cl)cc2)=N1)NCCc1ccccc1 (stereo unspecified)		136%		
CC(=O)N/C(N)=N/C(=N/S(=O)(=O)c1ccc(Br)cc1)N1CC(c2ccccc2)C(c2ccc(Cl)cc2)=N1 (stereo unspecified)	0.6 nM		94%	4.9 nM
CC(=O)N/C(N)=N/C(=N/S(=O)(=O)c1ccc(OC(F)(F)F)cc1)N1CC(c2ccccc2)C(c2ccc(Cl)cc2)=N1 (stereo unspecified)			125%	3.2 nM
CC(=O)N/C(N)=N/C(=N/S(=O)(=O)c1ccc(Cl)cc1)N1CC(c2ccccc2)C(c2ccc(Cl)cc2)=N1 (stereo unspecified)	2.9 nM		142%	3.1 nM
CC(=O)N/C(N)=N/C(=N/S(=O)(=O)c1ccc2ccccc2c1)N1C[C@@H](c2ccccc2)C(c2ccc(Cl)cc2)=N1	78 nM			
CCCN(CCC)/C(N)=N/C(=N/S(=O)(=O)c1ccc(Cl)cc1)N1CC(c2ccccc2)C(c2ccc(Cl)cc2)=N1 (stereo unspecified)		175%	175%	396 nM
CC(=O)N/C(N)=N/C(=N/S(=O)(=O)N1CCOCC1)N1CC(c2ccccc2)C(c2ccc(Cl)cc2)=N1 (stereo unspecified)	2.3 nM		162%	2 nM
CCN(CC)/C(N)=N/C(=N/S(=O)(=O)c1ccc(Cl)cc1)N1CC(c2ccccc2)C(c2ccc(Cl)cc2)=N1 (stereo unspecified)		113%	113%	53 nM

Compound	Ki (Cannabinoid receptor 1 [1])	Activity [2]	Activity [3]	IC50 (Cannabinoid receptor 1 [4])
CC(=O)N/C(N)=N/C(=N/S(=O)(=O)N1CCC(C(F)(F)F)CC1)N1C[C@@H](c2ccccc2)C(c2ccc(Cl)cc2)=N1	37 nM	114%		
Cc1ccc(S(=O)(=O)/N=C(/N=C(\N)NC(=O)c2ccccc2)N2CC(c3ccccc3)C(c3ccc(Cl)cc3)=N2)cc1 (stereo unspecified)	25 nM		102%	59 nM
CCCCN(CC)/C(N)=N/C(=N/S(=O)(=O)c1ccc(Cl)cc1)N1CC(c2ccccc2)C(c2ccc(Cl)cc2)=N1 (stereo unspecified)		172%		
CC(=O)N/C(N)=N/C(=N/S(=O)(=O)c1ccc(OC(F)(F)F)cc1)N1C[C@@H](c2ccccc2)C(c2ccc(Cl)cc2)=N1	5.3 nM	114%		
CN(Cc1ccccc1)/C(N)=N/C(=N/S(=O)(=O)c1ccc(Cl)cc1)N1CC(c2ccccc2)C(c2ccc(Cl)cc2)=N1 (stereo unspecified)		153%		
CN=C(NS(=O)(=O)c1ccc(Cl)cc1)N1C[C@H](c2ccccc2)C(c2ccc(Cl)cc2)=N1 [IBIPINABANT]	8.1 nM			
CC(=O)N/C(N)=N/C(=N/S(=O)(=O)c1ccc2ccccc2c1)N1CC(c2ccccc2)C(c2ccc(Cl)cc2)=N1 (stereo unspecified)	16 nM		117%	6.1 nM
N/C(=N\C(=N\S(=O)(=O)c1ccc(Cl)cc1)N1CC(c2ccccc2)C(c2ccc(Cl)cc2)=N1)N1CCCCC1 (stereo unspecified)		166%		
N/C(=N\C(=N\S(=O)(=O)c1ccc(Cl)cc1)N1CC(c2ccccc2)C(c2ccc(Cl)cc2)=N1)N1CCOCC1 (stereo unspecified)		127%		
CCC(=O)N/C(N)=N/C(=N/S(=O)(=O)c1ccc(Cl)cc1)N1CC(c2ccccc2)C(c2ccc(Cl)cc2)=N1 (stereo unspecified)	2.8 nM		91%	6 nM
COc1ccc(S(=O)(=O)/N=C(/N=C(\N)NC(C)=O)N2CC(c3ccccc3)C(c3ccc(Cl)cc3)=N2)cc1 (stereo unspecified)	13 nM		98%	16 nM
CN/C(=N\S(=O)(=O)c1ccc(Cl)cc1)N1C[C@H](c2ccccc2)C(c2ccc(Cl)cc2)=N1		100%		
N/C(=N\C(=N\S(=O)(=O)c1ccc(Cl)cc1)N1CC(c2ccccc2)C(c2ccc(Cl)cc2)=N1)NCC12C[C@H]3C[C@@H](C1)C[C@@H](C2)C3 (stereo partly specified)	> 1000 nM			
CC(C)N/C(N)=N/C(=N/S(=O)(=O)c1ccc(Cl)cc1)N1CC(c2ccccc2)C(c2ccc(Cl)cc2)=N1 (stereo unspecified)		145%		
COCCN(CCOC)/C(N)=N/C(=N/S(=O)(=O)c1ccc(Cl)cc1)N1CC(c2ccccc2)C(c2ccc(Cl)cc2)=N1 (stereo unspecified)		155%		
CC(=O)N/C(N)=N/C(=N/S(=O)(=O)c1ccccc1)N1CC(c2ccccc2)C(c2ccc(Cl)cc2)=N1 (stereo unspecified)	6.8 nM		93%	21 nM
NC(N)=N/C(=N/S(=O)(=O)c1ccc(Cl)cc1)N1CC(c2ccccc2)C(c2ccc(Cl)cc2)=N1 (stereo unspecified)	415 nM			
CC(=O)N/C(N)=N/C(=N/S(=O)(=O)c1ccc(C)cc1)N1CC(c2ccccc2)C(c2ccc(Cl)cc2)=N1 (stereo unspecified)	8.6 nM		96%	19 nM
N/C(=N\C(=N\S(=O)(=O)c1ccc(OC(F)(F)F)cc1)N1CC(c2ccccc2)C(c2ccc(Cl)cc2)=N1)NC(=O)c1ccccc1 (stereo unspecified)	13 nM		104%	86 nM
C=CCN(CC=C)/C(N)=N/C(=N/S(=O)(=O)c1ccc(Cl)cc1)N1CC(c2ccccc2)C(c2ccc(Cl)cc2)=N1 (stereo unspecified)		157%		
CC(=O)N/C(N)=N/C(=N/S(=O)(=O)c1ccc(C(C)(C)C)cc1)N1CC(c2ccccc2)C(c2ccc(Cl)cc2)=N1 (stereo unspecified)			118%	1.4 nM
CC(C)(C)N/C(N)=N/C(=N/S(=O)(=O)c1ccc(Cl)cc1)N1CC(c2ccccc2)C(c2ccc(Cl)cc2)=N1 (stereo unspecified)		126%	126%	230 nM
COc1ccc(S(=O)(=O)/N=C(/N=C(\N)NC(=O)c2ccccc2)N2CC(c3ccccc3)C(c3ccc(Cl)cc3)=N2)cc1 (stereo unspecified)	8.5 nM		98%	68 nM
N/C(=N\C(=N\S(=O)(=O)c1ccc(Cl)cc1)N1CC(c2ccccc2)C(c2ccc(Cl)cc2)=N1)N1CCCC1 (stereo unspecified)		135%		
CN(C)/C(N)=N/C(=N/S(=O)(=O)c1ccc(Cl)cc1)N1CC(c2ccccc2)C(c2ccc(Cl)cc2)=N1 (stereo unspecified)		124%	124%	47 nM
